{"source": "patent US10258639B2", "about": "“Methods for treating insulin resistance and for sensitizing patients to GLP1 agonist therapy” (Research Development Foundation, priority 2014, dated 2019)", "test_system": "INS1 cells", "assay": "RNAseq of INS1 cells infected with ACREB compared to GFP and stimulated with FSK", "type": "cell-based, rat", "design": "Irs2 RNAseq value, FSK / MafA RNAseq value, FSK / Nr4a2 RNAseq value, FSK / Diras2 RNAseq value, FSK: unit not given here", "conditions": "for Diras2 fold induction / Irs2 fold induction / MafA fold induction / Nr4a2 fold induction: FSK vs control; for Diras2 RNAseq value, FSK / Irs2 RNAseq value, FSK / MafA RNAseq value, FSK / Nr4a2 RNAseq value, FSK: stimulated with FSK", "procedure": "Transcriptome-wide studies were performed to identify CREB target genes that promote insulin expression and secretion. […] INS-1 insulinoma cells were cultured in RPMI (corning cellgro) containing 10% fetal bovine serum (Gemini Bio Products), 100 μg/mL penicillin-streptomycin and 1 mM sodium pyruvate (corning cellgro). MIN6 cells were grown in DMEM (corning cellgro) with 10% FBS, 100 μg/mL penicillin-streptomycin and 70 uM beta-mercaptoethanol. For chronic glucose experiments, cells were maintained under low (2.8 mM) or high (20 mM) glucose for 3 days. Exendin-4 (10 nM), Forskolin (10 μM), KCl (40 mM), DMOG (1 mM) and rapamycin (50 nM) were added to cells as indicated. Cellular cAMP levels were measured using an ELISA kit (Cayman Chemical Company) according to manufacturer's instructions. Total RNAs from cells or primary islets were extracted using Trizol and cDNA was generated using the Transcriptor First Strand cDNA Synthesis kit (Roche Applied Science). cDNAs were quantified on a lightcycler 480 instrument (Roche Applied Science). Gene expression data were presented relative to the expression of housekeeping gene L32 (rat samples) and 18S (mouse and human islets). RNA-Seq libraries were prepared using the mRNA isolation protocol and the NEBNext-Ultra kits from New England Biolabs following the manufacturer's protocols. Libraries were quantitated by Qubit (Invitrogen), and run on a MiSeq instrument with paired-end 75 bp reads using v3 chemistry (Illumina) Data were analyzed by tophat2 and cuffdiff against the mouse mm10 genome build. The GEO accession number for RNAseq studies reported in the paper is GSE60158.", "data": [{"compound": "C=C[C@@]1(C)CC(=O)[C@]2(O)[C@@]3(C)[C@@H](O)CCC(C)(C)[C@@H]3[C@H](O)[C@H](OC(C)=O)[C@@]2(C)O1", "note": "[FSK, Forskolin]", "values": [{"measurement": "Diras2 fold induction", "setting": "INS1 cells infected with ACREB", "result": 1.7, "unit": "fold"}, {"measurement": "Irs2 fold induction", "setting": "INS1 cells infected with ACREB", "result": 2.3, "unit": "fold"}, {"measurement": "MafA fold induction", "setting": "INS1 cells infected with ACREB", "result": 3.7, "unit": "fold"}, {"measurement": "Nr4a2 fold induction", "setting": "INS1 cells infected with ACREB", "result": 6.3, "unit": "fold"}, {"measurement": "Diras2 RNAseq value, FSK", "setting": "INS1 cells infected with ACREB", "result": 109.5}, {"measurement": "Irs2 RNAseq value, FSK", "setting": "INS1 cells infected with ACREB", "result": 38.8}, {"measurement": "MafA RNAseq value, FSK", "setting": "INS1 cells infected with ACREB", "result": 90.2}, {"measurement": "Nr4a2 RNAseq value, FSK", "setting": "INS1 cells infected with ACREB", "result": 5.5}, {"measurement": "Diras2 fold induction", "setting": "INS1 cells infected with GFP", "result": 11.5, "unit": "fold"}, {"measurement": "Irs2 fold induction", "setting": "INS1 cells infected with GFP", "result": 5.6, "unit": "fold"}, {"measurement": "MafA fold induction", "setting": "INS1 cells infected with GFP", "result": 8.7, "unit": "fold"}, {"measurement": "Nr4a2 fold induction", "setting": "INS1 cells infected with GFP", "result": 56.6, "unit": "fold"}, {"measurement": "Diras2 RNAseq value, FSK", "setting": "INS1 cells infected with GFP", "result": 519.7}, {"measurement": "Irs2 RNAseq value, FSK", "setting": "INS1 cells infected with GFP", "result": 289.9}, {"measurement": "MafA RNAseq value, FSK", "setting": "INS1 cells infected with GFP", "result": 474.4}, {"measurement": "Nr4a2 RNAseq value, FSK", "setting": "INS1 cells infected with GFP", "result": 106.5}]}]}
